Columns and labels:
β-catenin/Tcf-4 = assay: cells; format: cell-based; conditions: Homo sapiens, 24 hours of incubation with compound, ratio Firefly/Renilla luciferase
Method in brief: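 SW480-derived lines with integrated reporters (Tcf-4-driven firefly luciferase; SV40 firefly as specificity control; SV40 Renilla for cell number/toxicity), treated 24 hours with titrated compounds, final 0.316% DMSO. Dual-luciferase read-out; firefly/Renilla ratio as % of control, duplicate plates, IC50 (nM) from curve fit.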

SV40-Luc = SV40-Luc control luciferase reporter assay, SV 5A8 cell line (SV40-Luc and SV40-R-Luc), control for non-specific inhibitors; format: cell-based, human; conditions: Homo sapiens, SV5A8, 24 h, SV 5A8 cells derived from SW480; 24 hours of incubation with compound; ratio Firefly/Renilla luciferase
Method in brief: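 Compound exposure lasted 24 h, starting 20-24 h after seeding 1×10^4 cells/well, with titrated doses and 0.316% final DMSO. Readout was dual firefly/Renilla luminescence; Renilla under an SV40 promoter corrects for cell number and toxicity, and SV 5A8 (SV40 firefly) flags non-specific inhibitors versus Tcf-4-driven lines 33.13 and 22C11. IC50s came from the F/R ratio (% of control).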

[1] = SW480, 24 h, Tcf 33.13 cells derived from SW480
[2] = Tcf22C11, 24 h, Tcf 22C11 cells derived from SW480

Structure (SMILES)	IC50 (β-catenin/Tcf-4; [1]) [nM]	IC50 (β-catenin/Tcf-4; [2]) [nM]	IC50 (SV40-Luc) [nM]
C=Cc1ccc2c(N[C@@H](C)c3ccc(NC(=O)c4ccc(Cl)nc4)cc3)nc(N(C)C)nc2c1 [Example 106, 6-chloro-N-[4-((1S)-1-{[2-(dimethylamino)-7-vinylquinazolin-4-yl]amino}ethyl)phenyl]nicotinamide]	393	551	> 9820
C/C=C/c1ccc2c(N[C@@H](C)c3ccc(NC(=O)c4ccc(Cl)nc4)cc3)nc(N(C)C)nc2c1 [Example 107, 6-chloro-N-{4-[(1S)-1-({2-(dimethylamino)-7-[(1E)-prop-1-en-1-yl]quinazolin-4-yl}amino)ethyl]phenyl}nicotinamide]	336	414	> 4780
C#Cc1ccc2c(NCc3ccc(NC(=O)c4ccc(F)cc4)cc3)nc(N(C)C)nc2c1 [Example 108, N-[4-({[2-(dimethylamino)-7-ethynylquinazolin-4-yl]amino}methyl)phenyl]-4-fluorobenzamide]	236	508	> 5250
CN(C)c1nc(NCc2ccc(NC(=O)c3ccc(Cl)nc3)cc2)c2ccc(I)cc2n1 [Example 110, 6-chloro-N-[4-({[2-(dimethylamino)-7-iodoquinazolin-4-yl]amino}methyl)phenyl]nicotinamide]	1190	1760	> 16800
C=Cc1ccc2c(NCc3ccc(NC(=O)c4ccc(Cl)nc4)cc3)nc(N(C)C)nc2c1 [Example 111, 6-chloro-N-[4-({[2-(dimethylamino)-7-vinylquinazolin-4-yl]amino}methyl)phenyl]nicotinamide]	181	238	> 2520
C/C=C/c1ccc2c(NCc3ccc(NC(=O)c4ccc(Cl)nc4)cc3)nc(N(C)C)nc2c1 [Example 112, 6-chloro-N-{4-[({2-(dimethylamino)-7-[(1E)-prop-1-en-1-yl]quinazolin-4-yl}amino)methyl]phenyl}nicotinamide]	118	249	> 4910
O=C(Nc1ccc(CNc2nc(NC3CCCC3)nc3ccccc23)cc1)c1ccc(F)cc1 [Example 120, N-[4-({[2-(cyclopentylamino)quinazolin-4-yl]amino}methyl)phenyl]-4-fluorobenzamide]	795	850	> 1370
CCN(CC)c1nc(NCc2ccc(NC(=O)c3ccc(F)cc3)cc2)c2ccccc2n1 [Example 122, N-[4-({[2-(diethylamino)quinazolin-4-yl]amino}methyl)phenyl]-4-fluorobenzamide]	1260	2290	> 11300
O=C(Nc1ccc(CNc2nc(NCc3ccco3)nc3ccccc23)cc1)c1ccc(F)cc1 [Example 124, 4-fluoro-N-{4-[({2-[(2-furylmethyl)amino]quinazolin-4-yl}amino)methyl]phenyl}benzamide]	332	674	> 1340
O=C(Nc1ccc(CNc2nc(NC3CCCCC3)nc3ccccc23)cc1)c1ccc(F)cc1 [Example 125, N-[4-({[2-(cyclohexylamino)quinazolin-4-yl]amino}methyl)phenyl]-4-fluorobenzamide]	364	1580	> 1330
O=C(O)CNc1nc(NCc2ccc(NC(=O)c3ccc(F)cc3)cc2)c2ccccc2n1 [Example 127, N-[4-({4-[(4-fluorobenzoyl)amino]benzyl}amino)quinazolin-2-yl]glycine]	> 22400	> 22400	> 22400
CN(C)c1nc(NCc2ccc(NC(=O)c3ccc(Cl)nc3)cc2)c2ccccc2n1 [Example 128, 6-chloro-N-[4-({[2-(dimethylamino)quinazolin-4-yl]amino}methyl)phenyl]nicotinamide]	708	1130	> 23100
Cc1ccc2c(NCc3ccc(NC(=O)C4CCN(Cc5ccccc5)CC4)cc3)nc(N(C)C)nc2c1 [Example 129, 1-benzyl-N-[4-({[2-(dimethylamino)-7-methylquinazolin-4-yl]amino}methyl)phenyl]piperidine-4-carboxamide]	754	738	> 9170
Cc1ccc2c(NCc3ccc(NC(=O)C4CCN(Cc5ccccc5)CC4)cc3)nc(N3CCC3)nc2c1 [Example 134, N-(4-{[(2-azetidin-1-yl-7-methylquinazolin-4-yl)amino]methyl}phenyl)-1-benzylpiperidine-4-carboxamide]	782	805	> 9600
Cc1ccc2c(NCc3ccc(NC(=O)C4CCN(Cc5ccccc5)CC4)cc3)nc(N3CCC(N4CCCC4)CC3)nc2c1 [Example 135, 1-benzyl-N-[4-({[7-methyl-2-(4-pyrrolidin-1-ylpiperidin-1-yl)quinazolin-4-yl]amino}methyl)phenyl]piperidine-4-carboxamide]	853	965	> 8090
Cc1ccc2c(NCc3ccc(NC(=O)C4CCN(Cc5ccccc5)CC4)cc3)nc(N3CCN(c4ncccn4)CC3)nc2c1 [Example 136, 1-benzyl-N-[4-({[7-methyl-2-(4-pyrimidin-2-ylpiperazin-1-yl)quinazolin-4-yl]amino}methyl)phenyl]piperidine-4-carboxamide]	365	494	> 15900

Now from value to compound:

IC50 (β-catenin/Tcf-4; [1]) [nM]	IC50 (β-catenin/Tcf-4; [2]) [nM]	IC50 (SV40-Luc) [nM]	Structure (SMILES)
766	1490	> 3010	CN(C)c1nc(NCc2ccc(NC(=O)c3ccc(F)cc3)cc2)c2ccccc2n1 [Example 113, N-[4-({[2-(dimethylamino)quinazolin-4-yl]amino}methyl)phenyl]-4-fluorobenzamide]
991	1380	> 2830	O=C(Nc1ccc(CNc2nc(NC3CCC3)nc3ccccc23)cc1)c1ccc(F)cc1 [Example 115, N-[4-({[2-(cyclobutylamino)quinazolin-4-yl]amino}methyl)phenyl]-4-fluorobenzamide]
3040	3440	> 21300	CN1CCN(c2nc(NCc3ccc(NC(=O)c4ccc(F)cc4)cc3)c3ccccc3n2)CC1 [Example 116, 4-fluoro-N-[4-({[2-(4-methylpiperazin-1-yl)quinazolin-4-yl]amino}methyl)phenyl]benzamide]
4480	7170	> 21900	O=C(Nc1ccc(CNc2nc(N3CCOCC3)nc3ccccc23)cc1)c1ccc(F)cc1 [Example 117, 4-fluoro-N-(4-{[(2-morpholin-4-ylquinazolin-4-yl)amino]methyl}phenyl)benzamide]
588	942	> 3010	CCNc1nc(NCc2ccc(NC(=O)c3ccc(F)cc3)cc2)c2ccccc2n1 [Example 118, N-[4-({[2-(ethylamino)quinazolin-4-yl]amino}methyl)phenyl]-4-fluorobenzamide]
1270	1740	> 2830	O=C(Nc1ccc(CNc2nc(N3CCCC3)nc3ccccc23)cc1)c1ccc(F)cc1 [Example 119, 4-fluoro-N-(4-{[(2-pyrrolidin-1-ylquinazolin-4-yl)amino]methyl}phenyl)benzamide]
2930	5850	> 11000	O=C(Nc1ccc(CNc2nc(N3CCCCC3)nc3ccccc23)cc1)c1ccc(F)cc1 [Example 123, 4-fluoro-N-(4-{[(2-piperidin-1-ylquinazolin-4-yl)amino]methyl}phenyl)benzamide]

Reference: patent US20090004185A1, “AMINO-SUBSTITUTED QUINAZOLINE DERIVATIVES AS INHIBITORS OF BETA-CATENIN/TCF-4 PATHWAY AND CANCER TREATMENT AGENTS” (WYETH, priority 2007, published 2009)
